Test results: article PMC8222713, “Variation of Two S3b Residues in KV4.1–4.3 Channels Underlies Their Different Modulations by Spider Toxin κ-LhTx-1” (Frontiers in Pharmacology, 2021)
Where a SMILES comes first, the peptide text is derived from it. Bridges are numbered along the chain shown (N, C = ends).

Assays:
KV4.3 channel (rKV4.3) = biological target: T1, KV4.3 channel (rKV4.3) (Rattus norvegicus, UniProt Q62897); assay: Whole-cell patch clamp, KV4.3 in CHO-K1 cells; assay type: cell-based
T1 construct: expressed in transfected cells; host or cells: CHO-K1 (transient, co-transfected with pEGFP-N1)
T1 sequence (Q62897 1-655): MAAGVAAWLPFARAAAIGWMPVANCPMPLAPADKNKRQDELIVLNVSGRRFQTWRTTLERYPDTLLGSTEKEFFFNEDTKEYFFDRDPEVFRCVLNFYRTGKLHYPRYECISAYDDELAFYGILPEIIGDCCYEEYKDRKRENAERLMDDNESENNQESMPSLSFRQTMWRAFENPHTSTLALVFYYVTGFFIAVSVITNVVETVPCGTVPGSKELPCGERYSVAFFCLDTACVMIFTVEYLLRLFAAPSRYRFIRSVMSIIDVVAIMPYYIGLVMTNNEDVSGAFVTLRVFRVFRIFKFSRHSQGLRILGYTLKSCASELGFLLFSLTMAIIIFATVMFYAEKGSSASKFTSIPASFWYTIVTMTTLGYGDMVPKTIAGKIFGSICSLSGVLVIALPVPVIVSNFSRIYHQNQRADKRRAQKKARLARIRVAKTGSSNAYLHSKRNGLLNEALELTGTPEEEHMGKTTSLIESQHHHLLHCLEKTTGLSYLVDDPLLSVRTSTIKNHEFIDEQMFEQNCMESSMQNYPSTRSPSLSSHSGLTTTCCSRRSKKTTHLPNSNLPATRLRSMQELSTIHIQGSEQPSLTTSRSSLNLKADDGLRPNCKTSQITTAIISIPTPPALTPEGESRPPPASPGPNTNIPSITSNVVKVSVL
Description: (§1) The cDNA of hKV1.1, hKV1.3, rKV1.4, hKV1.5, rKV2.1, hKV3.1–3.4, mKV4.1, rKV4.2, and rKV4.3 were subcloned in the eukaryotic expression vector pCDNA3.1 or pCMV-blank. Channel mutants were made by a site-directed mutation method. Briefly, a pair of oppositely directed primers with 15 bp overlap at their 5′ ends and the designed mutation site were used to amplify the parental channel plasmid, then the PCR mix was treated with DpnI to remove the template. 10 μL digestion mix was directly used to transform 100 μL DH5α chemical competent cells. The correct mutation made by this procedure was finally confirmed by DNA sequencing. CHO-K1 cells (ATCC® CCL-61™) were grown in DMEM-F12 mixed medium (1:1) supplemented with 10% FBS and maintained in standard conditions (saturated humidity, 37°C, 5% CO2). Channel plasmid was co-transfected with pEGFP-N1 (encodes the green fluoresence protein) into CHO-K1 cells using lipofectamine 2000 following the manufacturer’s instructions. 4–6 h after transfection, cells were seeded onto poly-lysine (PLL) coated coverslips, and 24–36 h later, transfected cells were ready for patch-clamp analysis. It should be note that KV4.2 and its mutants were also co-expressed with hKChIP1 to promote their functional expressions.
(§2) Whole-cell patch clamp recording was performed in an electrophysiology platform equipped with MultiClamp 700B amplifier and Axon Digidata 1550 AD/DA convertor (Axon Instruments, Irvine, CA, United States). Data were acquired using the pClamp software (Axon Instruments, Irvine, CA, United States). All experiments were performed at room temperature. The bath solution contains (in mM): 140 NaCl, 5 KCl, 1 MgCl2, 2 CaCl2, 10 glucose, and 10 HEPES (pH = 7.3). The pipette solution contains (in mM): 140 KCl, 2.5 MgCl2, 11 EGTA, and 10 HEPES (pH = 7.3). Series resistance was kept below 10 MΩ and compensated to 80%. The concentration–response curves were fitted by a Hill logistic equation to estimate the potency (IC50) of the toxin. The whole cell conductance (G) at each depolarizing voltage (V) was determined using the equation: G = I/(V−Vrev), where I and Vrev represents the current amplitude and the reversal potential, respectively. In the present study, Vrev for K^+ current is determined to be −85.61 mV using the Nernst equation. G-V curve was obtained by plotting the normalized G as a function of V and fitted by the Boltzmann equation: y = 1/{1 + exp [(Va−V)/K]}, in which Va, V, and K represents half-maximum activation voltage, test voltage and slope factor, respectively. The steady-state fast inactivation of KV4 channels was measured using a classical two-pulses protocol: cell was held at −120 mV, and a train of conditional voltages (−120–40 mV, in 10 mV increment, 1,000 ms) were applied to induce channel inactivation, followed by a +60 mV test pulse (300 ms) to assess the proportion of non-inactivated channels; the sweep interval was set to 10 s. Currents at the test pulse (I) were normalized to the maximum value (Imax) and plotted as a function of the conditional voltage (V), the curve was fitted by the Boltzmann equation: I/Imax = A + (1−A)/{1 + exp [(V−Vh)/K]}, where Vh is the half-maximum inactivation voltage, A represents the minimum channel availability, and K is the slope factor. Gating currents of KV4.1–4.3 channels were measured as previously reported ([Tilley et al., 2019]). Briefly, the ionic pore currents were abolished by replacing K^+ with NMDG^+ in the pipette solution, and 10 µM Cs^+ was present in the bath solution to occupy the selectivity filter of KV channels to prevent decay of the gating currents during recording.
(§3) Data were presented as MEAN ± SEM, n represents the number of separate experimental cells. Data were analyzed using the software Clampfit 10.5 (Axon Instruments, Irvine, CA, United States), Graphpad Prism 5.01 (GraphPad Software, La Jolla, CA, United States) and Excel 2010 (Microsoft Corporation, Redmond, WA, United States). […]

KV1.3 channel (hKV1.3) = assay: Whole-cell patch clamp selectivity, KV1.3; assay type: cell-based, human; settings: KV1.3, 10 µM, n = 5
Description: (§4) The cDNA of hKV1.1, hKV1.3, rKV1.4, hKV1.5, rKV2.1, hKV3.1–3.4, mKV4.1, rKV4.2, and rKV4.3 were subcloned in the eukaryotic expression vector pCDNA3.1 or pCMV-blank. Channel mutants were made by a site-directed mutation method. Briefly, a pair of oppositely directed primers with 15 bp overlap at their 5′ ends and the designed mutation site were used to amplify the parental channel plasmid, then the PCR mix was treated with DpnI to remove the template. 10 μL digestion mix was directly used to transform 100 μL DH5α chemical competent cells. The correct mutation made by this procedure was finally confirmed by DNA sequencing. […] 4–6 h after transfection, cells were seeded onto poly-lysine (PLL) coated coverslips, and 24–36 h later, transfected cells were ready for patch-clamp analysis. […]
(§5) Whole-cell patch clamp recording was performed in an electrophysiology platform equipped with MultiClamp 700B amplifier and Axon Digidata 1550 AD/DA convertor (Axon Instruments, Irvine, CA, United States). […] The whole cell conductance (G) at each depolarizing voltage (V) was determined using the equation: G = I/(V−Vrev), where I and Vrev represents the current amplitude and the reversal potential, respectively. In the present study, Vrev for K^+ current is determined to be −85.61 mV using the Nernst equation. […] Gating currents of KV4.1–4.3 channels were measured as previously reported ([Tilley et al., 2019]). […]

KV1.5 channel (hKV1.5) = assay: Whole-cell patch clamp selectivity, KV1.5; assay type: cell-based, human; settings: KV1.5, 10 µM, n = 5
Description: as §4, §5

KV4.3/N278K mutant = assay: Whole-cell patch clamp, KV4.3/N278K in CHO-K1 cells; assay type: cell-based, rat
Description: as §1, §2, §3

[1] = 10 μM κ-LhTx-1, KV4.3, G-V, mean ± SEM, n = 10
[2] = 10 μM κ-LhTx-1, KV4.3, two-pulse protocol, mean ± SEM, n = 7
[3] = 10 μM κ-LhTx-1, G-V, mean ± SEM, n = 6
[4] = 10 μM κ-LhTx-1, two-pulse protocol, mean ± SEM, n = 5

## CC[C@H](C)[C@@H]1NC(=O)[C@H](CCC(N)=O)NC(=O)[C@@H]2CSSC[C@@H]3NC(=O)[C@H](CC(C)C)NC(=O)[C@H](CC(N)=O)NC(=O)[C@H](CCSC)NC(=O)[C@H](Cc4c[nH]c5ccccc45)NC(=O)[C@H](CO)NC(=O)[C@H](C)NC(=O)[C@@H](NC(=O)[C@H](CCC(=O)O)NC(=O)[C@H](CCC(N)=O)NC(=O)[C@H](C)NC(=O)[C@H](CC(=O)O)NC(=O)[C@@H](N)CCC(=O)O)CSSC[C@H](NC(=O)[C@H](CSSC[C@@H](C(=O)N[C@@H](CCCCN)C(=O)N[C@@H](Cc4ccc(O)cc4)C(=O)N[C@@H](CCCCN)C(=O)N[C@@H](CC(C)C)C(N)=O)NC(=O)[C@H](Cc4c[nH]c5ccccc45)NC1=O)NC(=O)[C@H](CCCCN)NC(=O)[C@H](CCCCN)NC(=O)[C@H](CCC(=O)O)NC(=O)CNC3=O)C(=O)N[C@@H](CCC(=O)O)C(=O)NCC(=O)N[C@@H](Cc1ccc(O)cc1)C(=O)N[C@@H](C(C)C)C(=O)N2 [κ-LhTx-1] (H-EDAQECASWMNLCGEKKCCEGYVCQIWCKYKL-NH2; disulfide 6-19, 13-24, 18-28 (inferred); N-terminus and C-terminus assumed)
KV4.3 channel (rKV4.3); [1]
  Va (steady-state activation): 46.86 ± 1.52 mV
  k, slope factor (steady-state activation): 20.45 ± 0.30 mV
KV4.3 channel (rKV4.3); [2]
  Vh (steady-state inactivation): -30.87 ± 2.23 mV
  k, slope factor (steady-state inactivation): 6.21 ± 0.43 mV
KV4.3 channel (rKV4.3); KV4.3
  reversibility of inhibition: in a reversible manner
KV4.3 channel (rKV4.3); KV4.3, 10 µM, inhibition ratio at each depolarizing voltage, n = 5–8
  voltage-dependence of inhibition: decreased quickly with the increment of the depolarizing voltage
KV4.3 channel (rKV4.3); KV4.3, 10 µM, n = 5–8
  I-V relationship shift: only a small shift
KV4.3 channel (rKV4.3); KV4.3 at Va depolarizing voltage
  current inhibition at Va: almost fully inhibited
KV4.3 channel (rKV4.3); Va shift by 10 μM κ-LhTx-1 vs control, KV4.3, mean ± SEM
  ∆Va (steady-state activation): 39.88 ± 2.19 mV
KV4.3 channel (rKV4.3); Vh shift by 10 μM κ-LhTx-1 vs control, KV4.3, mean ± SEM
  ∆Vh (steady-state inactivation): 14.83 ± 3.34 mV
KV1.3 channel (hKV1.3)
  effect on currents: did not remarkably affect the currents
KV1.5 channel (hKV1.5)
  effect on currents: did not remarkably affect the currents
KV4.3/N278K mutant; [3]
  Va (steady-state activation): 68.62 ± 1.73 mV
  k, slope factor (steady-state activation): 18.03 ± 0.87 mV
KV4.3/N278K mutant; [4]
  Vh (steady-state inactivation): -17.01 ± 1.57 mV
  k, slope factor (steady-state inactivation): 10.75 ± 0.63 mV
KV4.3/N278K mutant; 10 μM, still greater than in KV4.1
  voltage-dependence of inhibition vs parental KV4.3: much less voltage-dependence
KV4.3/N278K mutant; Va shift by 10 μM κ-LhTx-1 vs control, mean ± SEM
  ∆Va (steady-state activation): 59.97 ± 2.64 mV
KV4.3/N278K mutant; Vh shift by 10 μM κ-LhTx-1 vs control, mean ± SEM
  ∆Vh (steady-state inactivation): 30.24 ± 1.80 mV
